Results published in US20090023200A1, “PARTICLE FOR DETECTING ENZYME ACTIVITY, METHOD FOR DETECTING THE ENZYME ACTIVITY AND ENZYME ACTIVITY DETECTION DEVICE BY THE USE THEREOF” (priority 2005, published 2009).
Square brackets hold non-standard residues; d marks the D form. Ends that are not written are not given here. * marks the point of attachment. FITC = O=C1OC2(c3ccc(O)cc3Oc3cc(O)ccc32)c2ccc(NC(=S)*)cc21; Dnp = O=[N+]([O-])c1ccc(*)c([N+](=O)[O-])c1; βAla = NCCC(=O)O

Legend:
Type in all cases: biochemical
subtilisin [1] = assay: Subtilisin cleavage of particles for detecting enzyme activity, fluorescence change (Example 1); details: for Fluorescence value (changed amount): subtilisin 10 units, 1 mg particle, difference 20 minutes after adding sample solution vs before, excitation 485 nm, fluorescence 535 nm
Procedure: To each 1 mg of the particle for detecting the enzyme activity of the samples 1 to 8, 190 μL of 20 mM Tris-HCl buffer (pH 8.0, 100 mM NaCl, 50 mM CaCl2) containing 0.01% Tween 20 was added, to which 10 μL of subtilisin aqueous solution (10 units) as a sample solution was added. Every measurement time, 10 μL of the sample was taken and 190 μL of the buffer was added, the mixture was transferred to a 96-well plate, and fluorescence values were measured (measurement time: 0.1 seconds) using Wallac 1420 ARVO sx plate reader manufactured by PerkinElmer. A changed amount (difference between the fluorescence value 20 minutes after adding the sample solution and the fluorescence value before adding the sample solution) of the fluorescence value 20 minutes after adding the sample solution is shown in the column on the right in Table 1 (excitation wavelength: 485 nm, fluorescence wavelength: 535 nm).

trypsin [2] = assay: Trypsin cleavage of particles for detecting enzyme activity, fluorescence change (Example 2); details: trypsin 100 units, 1 mg particle, difference 60 minutes after adding sample solution vs before; excitation 485 nm, fluorescence 535 nm
Procedure: To each 1 mg of the particle for detecting the enzyme activity of the samples 9 to 21, 190 μL of 20 mM Tris-HCl buffer (pH 8.0, 100 mM NaCl, 50 mM CaCl2) containing 0.01% Tween 20 was added, to which […] of trypsin aqueous solution (100 units) as the sample solution was added. Every measurement time, 10 μL of the sample was taken and 190 μL of the buffer was added, the mixture was transferred to the 96-well plate, and fluorescence values were measured (measurement time: 0.1 seconds) using Wallac 1420 ARVO sx plate reader manufactured by PerkinElmer. The changed amount (difference between the fluorescence value 60 minutes after adding the sample solution and the fluorescence value before adding the sample solution) of the fluorescence value 60 minutes after adding the sample solution is shown in the column on the right in Table 2 (excitation wavelength: 485 nm, fluorescence wavelength: 535 nm).

elastase = assay: Elastase cleavage of particles, fluorescence change (Example 3); details: for Fluorescence value Elastase (changed amount): elastase 10 units, 1 mg particle, difference 60 minutes after adding sample solution vs before, excitation 485 nm, fluorescence 535 nm
Procedure: (§1) To each 1 mg of the particle for detecting the enzyme activity of the samples 22 to 25, 190 μL of 20 mM Tris-HCl buffer (pH 8.0, 100 mM NaCl, 50 mM CaCl2) containing 0.01% Tween 20 was added, to which 10 μL of elastase aqueous solution (10 units), 10 μL of trypsin aqueous solution (10 units) and 10 μL of subtilisin aqueous solution (10 units) as the sample solution was added. Every measurement time, 10 μL of the sample was taken and 190 μL of the buffer was added, the mixture was transferred to the 96-well plate, and fluorescence values were measured (measurement time: 0.1 seconds) using Wallac 1420 ARVO sx plate reader manufactured by PerkinElmer. The changed amount (difference between the fluorescence value 60 minutes after adding the sample solution and the fluorescence value before adding the sample solution) of the fluorescence value […] the sample solution is shown in the column on the right in Table 3 (excitation wavelength: 485 nm, fluorescence wavelength: 535 nm).

trypsin [3] = assay: Trypsin cleavage of particles, fluorescence change (Example 3); details: for Fluorescence value Trypsin (changed amount): trypsin 10 units, 1 mg particle, difference 60 minutes after adding sample solution vs before, excitation 485 nm, fluorescence 535 nm
Procedure: as §1

subtilisin [4] = assay: Subtilisin cleavage of particles, fluorescence change (Example 3); details: subtilisin 10 units, 1 mg particle, difference 60 minutes after adding sample solution vs before; excitation 485 nm, fluorescence 535 nm
Procedure: as §1

Sample 1: PEGA resin particle bearing FITC-β-Ala-Pro-Leu-Gly-Lys, Dnp quencher on lysine ({FITC}-[βAla]PLGK(Dnp); also: attached to PEGA resin particle)
Fluorescence value (changed amount) (subtilisin [1]): 14.8
difference in the changed amount of the fluorescence values, sample 1 (highest activity) vs sample 8 (lowest activity) (subtilisin [1]; subtilisin, 20 minutes): ≥ 10 times

Sample 2: PEGA resin particle bearing FITC-β-Ala-Ala-Pro-Ala-Lys, Dnp quencher on lysine ({FITC}-[βAla]APAK(Dnp); also: attached to PEGA resin particle)
Fluorescence value (changed amount) (subtilisin [1]): 7.9

Sample 3: PEGA resin particle bearing FITC-β-Ala-Ala-Pro-Val-Lys, Dnp quencher on lysine ({FITC}-[βAla]APVK(Dnp); also: attached to PEGA resin particle)
Fluorescence value (changed amount) (subtilisin [1]): 1.2

Sample 10: PEGA resin particle bearing FITC-β-Ala-Asp-Gly-Arg-Lys, Dnp quencher on lysine ({FITC}-[βAla]DGRK(Dnp); also: attached to PEGA resin particle)
Fluorescence value (changed amount) (trypsin [2]): 57

Sample 11: PEGA resin particle bearing FITC-β-Ala-Pro-Arg-Gly-Lys, Dnp quencher on lysine ({FITC}-[βAla]PRGK(Dnp); also: attached to PEGA resin particle)
Fluorescence value (changed amount) (trypsin [2]): 51

Sample 12: PEGA resin particle bearing FITC-β-Ala-His-Glu-Lys-Lys, Dnp quencher on lysine ({FITC}-[βAla]HEKK(Dnp); also: attached to PEGA resin particle)
Fluorescence value (changed amount) (trypsin [2]): 45

Sample 13: PEGA resin particle bearing FITC-β-Ala-Ser-Ala-Arg-Lys, Dnp quencher on lysine ({FITC}-[βAla]SARK(Dnp); also: attached to PEGA resin particle)
Fluorescence value (changed amount) (trypsin [2]): 24

Sample 14: PEGA resin particle bearing FITC-β-Ala-Asn-Pro-Arg-Lys, Dnp quencher on lysine ({FITC}-[βAla]NPRK(Dnp); also: attached to PEGA resin particle)
Fluorescence value (changed amount) (trypsin [2]): 18

Sample 15: PEGA resin particle bearing FITC-β-Ala-Gly-Lys-Arg-Lys, Dnp quencher on lysine ({FITC}-[βAla]GKRK(Dnp); also: attached to PEGA resin particle)
Fluorescence value (changed amount) (trypsin [2]): 18

Sample 16: PEGA resin particle bearing FITC-β-Ala-Gly-Arg-Arg-Lys, Dnp quencher on lysine ({FITC}-[βAla]GRRK(Dnp); also: attached to PEGA resin particle)
Fluorescence value (changed amount) (trypsin [2]): 14

Sample 17: PEGA resin particle bearing FITC-β-Ala-Pro-Arg-Leu-Lys, Dnp quencher on lysine ({FITC}-[βAla]PRLK(Dnp); also: attached to PEGA resin particle)
Fluorescence value (changed amount) (trypsin [2]): 10

Sample 18: PEGA resin particle bearing FITC-β-Ala-Thr-Arg-Val-Lys, Dnp quencher on lysine ({FITC}-[βAla]TRVK(Dnp); also: attached to PEGA resin particle)
Fluorescence value (changed amount) (trypsin [2]): 9

Sample 19: PEGA resin particle bearing FITC-β-Ala-Phe-Phe-Arg-Lys, Dnp quencher on lysine ({FITC}-[βAla]FFRK(Dnp); also: attached to PEGA resin particle)
Fluorescence value (changed amount) (trypsin [2]): 8

Sample 20: PEGA resin particle bearing FITC-β-Ala-His-Leu-Lys-Lys, Dnp quencher on lysine ({FITC}-[βAla]HLKK(Dnp); also: attached to PEGA resin particle)
Fluorescence value (changed amount) (trypsin [2]): 7

Sample 21: PEGA resin particle bearing FITC-β-Ala-Pro-Phe-Arg-Lys, Dnp quencher on lysine ({FITC}-[βAla]PFRK(Dnp); also: attached to PEGA resin particle)
Fluorescence value (changed amount) (trypsin [2]): 3

Sample 22: PEGA resin particle bearing FITC-β-Ala-Leu-Leu-Glu-Lys, Dnp quencher on lysine ({FITC}-[βAla]LLEK(Dnp); also: attached to PEGA resin particle)
Fluorescence value Elastase (changed amount) (elastase): 38
fluorescence change by trypsin activity relative to that by subtilisin activity (trypsin [3]; Table 3 values, same particle): about 1/240
Fluorescence value Trypsin (changed amount) (trypsin [3]): 2
Fluorescence value Subtilisin (changed amount) (subtilisin [4]): 481

Sample 23: PEGA resin particle bearing FITC-β-Ala-Ala-Pro-Ala-Lys, Dnp quencher on lysine ({FITC}-[βAla]APAK(Dnp); also: attached to PEGA resin particle)
fluorescence change by elastase activity relative to that by subtilisin activity (elastase; Table 3 values, same particle): about 2 times
Fluorescence value Elastase (changed amount) (elastase): 582
Fluorescence value Trypsin (changed amount) (trypsin [3]): 13
Fluorescence value Subtilisin (changed amount) (subtilisin [4]): 291

Sample 24: PEGA resin particle bearing FITC-β-Ala-Asn-Leu-Asp-Lys, Dnp quencher on lysine ({FITC}-[βAla]NLDK(Dnp); also: attached to PEGA resin particle)
Fluorescence value Elastase (changed amount) (elastase): 23
Fluorescence value Trypsin (changed amount) (trypsin [3]): 5
Fluorescence value Subtilisin (changed amount) (subtilisin [4]): 446

Sample 25: PEGA resin particle bearing FITC-β-Ala-Ala-Pro-Leu-Lys, Dnp quencher on lysine ({FITC}-[βAla]APLK(Dnp); also: attached to PEGA resin particle)
Fluorescence value Elastase (changed amount) (elastase): 134
Fluorescence value Trypsin (changed amount) (trypsin [3]): 11
Fluorescence value Subtilisin (changed amount) (subtilisin [4]): 428
